# Values of other authors as cited in patent US9034622B2, “Preparation for photodynamic control of microorganisms and use thereof” (priority 2004, dated 2015).
# Columns and labels:
# [1] = tested on: reperfusion-induced damage or the extent of the myocardial infarct; settings: intravenous glutathione administration; pigs pre-treated with glutathione synthesis inhibitor; ischemia/reperfusion
# [2] = tested on: isolated perfused heart; settings: perfusate enriched with GSH
smiles,measurement,setting,value
"N[C@@H](CCC(=O)N[C@@H](CS)C(=O)NCC(=O)O)C(=O)O [glutathione, Glutathione]",reperfusion-induced damage or extent of the myocardial infarct,[1],could be reduced
same,recovery of ventricle function after ischemia and reperfusion,[2],better recovery of ventricle function
